According to paper PMC4512978, “Synthesis and evaluation in rats of homologous series of [^18F]-labeled dopamine D2/3 receptor agonists based on the 2-aminomethylchroman scaffold as potential PET tracers” (EJNMMI Research, 2015):

Legend:
D2/3R [1] = experiment: MicroPET study in rats; assay type: in vivo, Sprague-Dawley rats; settings: saline pre-treated rats; peak (45 min post-injection for [^18F]FEt-AMC13 and [^11C]raclopride)
Protocol: Animal experiments were performed by licensed investigators in compliance with the Law on Animal Experiments of The Netherlands. The protocol was approved by the Committee on Animal Ethics of the University of Groningen. Young male (10–12 weeks of age, 300–350 g body weight) Sprague-Dawley rats (Harlan, the Netherlands) were used for all experiments. The rats were maintained at a 12-h light/12-h dark regime and were fed standard laboratory chow ad libitum.
Distribution of the radiotracers was studied in rats pre-treated, at random, with physiological saline (controls) or raclopride tartrate (1 mg/kg calculated per raclopride base, equivalent to 2.9 μmol/kg). Saline and raclopride were administered intravenously (1 mL/kg injected volume).
An additional group of saline pre-treated rats, injected with [^11C]raclopride, served as positive controls for D2/3R-specific brain uptake.
Two rats were scanned simultaneously. Before all manipulations, animals were anesthetized with a mixture of isoflurane/air (inhalation anesthesia, 5 % ratio during induction, 2 % at maintenance). Cannulae were placed into the rats’ left femoral arteries and veins; the operation took 45–50 min. The rats were positioned supine inside the camera (Focus 220 microPET, Siemens-Concorde), one above the other with their heads in the camera’s field of view. A 515-s transmission scan with a Co-57 point source was performed. Tracer was injected through the venous cannula as a slow bolus (1 mL volume, 60 s long) using an infusion pump. The second (upper) animal was injected 16 min after the first (lower).
PET acquisition was started during the injection of radioactivity in the first rat. A 106-min long (76 min long in the case of [^11C]raclopride) list-mode acquisition protocol was used for the scan.
List-mode data from the 106-min-long and 76-min-long scans were reframed into, respectively, 90-min-long and 60-min-long dynamic sequences of 6 × 10, 4 × 30, 2 × 60, 1 × 120, 1 × 180, 4 × 300, 3 × 600, and (for 90-min-long scans) 2 × 900 s frames. The data were reconstructed per time frame using an iterative reconstruction algorithm (attenuation-weighted 2-dimensional ordered-subset expectation maximization, provided by Siemens; 4 iterations, 16 subsets; zoom factor 2). Datasets were fully corrected for random coincidences, scatter, and attenuation. Data from the transmission scan were used for attenuation correction. The final datasets consisted of 95 slices, with a slice thickness of 0.8 mm and an in-plane image matrix size of 128 × 128 and pixel size of 0.47 × 0.47 mm.
Reconstructed images were analyzed with Inveon 2.0 software (Siemens Medical Solutions, USA, Inc). Regions of interest (ROIs) were drawn manually on a T2-weighted MRI template of rat brain around the striatum, brainstem, cortex, hippocampus, hypothalamus, thalamus, olfactory bulbs, and cerebellum around the whole brain and around the pituitary gland. The MRI template was co-registered with the PET scan by image fusion. The time-activity curves (TAC) per ROI were determined in Bq/cm^3 units and converted into standardized uptake values (SUVs).
(§1) Degree of D2/3R-specific binding of the tracers was characterized by BPND (as given above) or the specific binding ratio (SBR) given as target region activity/cerebellar activity - 1. Both were calculated under control conditions and in response to the raclopride challenge.

[2] = tested on: D2/3R against serotonin-1A and adrenergic α1 receptors; set-up: method as in PMID 9435894; settings: cited from earlier work
D2/3R [3] = settings: cited from earlier work; for displacement of apparent D2/3R-specific striatal uptake: Sprague-Dawley rats, 1–2 mg/kg (2.9–5.8 μmol/kg) raclopride
[4] = LogD measurement (n-octanol/phosphate buffer); assay type: physicochemical; settings: n-octanol / 1 M phosphate buffer pH 7.4
Protocol: LogD of the tracers was measured using the radioactivity remaining on the HLB SPE cartridges after their elution with ethanol during the tracer formulation procedure (see above). The cartridge was dried with nitrogen for 5 min and eluted with at least 1.5 mL n-octanol. A 500 μL portion of octanol eluate was mixed with 500 μL of 1 M phosphate buffer (pH 7.4) and vigorously vortexed for 5 min. The mixture was then centrifuged at 17,000g for 10 min and 3 × 100 μL aliquots of organic and aqueous phase were loaded into a gamma-counter for radioactivity measurement. To correct for possible presence of radioactive impurities in the tracer, aliquots of organic and aqueous phases were later analyzed by radio-TLC, and the counts obtained from the gamma-counter were corrected according to the percentage of impurities found in aqueous and organic phases. LogD was calculated with the following formula: LogD=lgCPMorg×Xorgtracer/CPMaq×Xaqtracer,
where CPMorg is the mean radioactivity of the organic aliquots, Xorgtracer is the mean percentage of radioactivity accounting for intact tracer in organic aliquots (as determined from radio-TLC), and CPMaq and Xaqtracer are the corresponding values for the aqueous phase.
For each tracer batch used for logD determination, the experiment was performed in duplicate. LogD values are means calculated from at least two independent experiments.

D2/3R [5] = experiment: In vitro autoradiography of rat brain slices; assay type: binding, Sprague-Dawley rats; settings: for Striatal SBR % change relative to control condition, Raclopride / Striatal SBR, Raclopride: with 10 μM raclopride; for Striatal SBR % change relative to control condition, GTP / Striatal SBR, GTP: with 100 μM GTP
Protocol: In vitro autoradiography assay was performed as previously described. Frozen brains of young (10–12 weeks of age; 300–350 g body weight) male Sprague-Dawley rats (Harlan, Netherlands) were cut at −12 °C into sagittal slices 20 μm thick using a Leica microtome, and the slices were thaw-mounted on Superfrost (70 × 22 mm, Fischer) adhesive slides. Only slices containing both striatal and cerebellar regions were used. The slides with slices mounted them were allowed to dry, then put into storage boxes with silica gel bags and stored at −80 °C.
On the day of the experiment (within 1 week from the preparation of the slices), the slides were taken out of storage and allowed to come to room temperature for 5–10 min. Then, 1–1.2 mL of incubation buffer (50 mM Tris-HCl, 5 mM KCl, 2 mM CaCl2, 2 mM MgCl2, 120 mM NaCl, pH 7.4 25 °C) was applied per slide, and the slides were pre-incubated for 15 min at room temperature. The buffer was then removed, and the slides were placed into staining jars containing radioligand solution (concentration range of 0.1–10 nM) in the incubation buffer with or without 10 μM raclopride (D2/3 antagonist) or 100 μM guanosine-5'-triphosphate sodium salt (GTP, stimulator of G-protein uncoupling from the receptors). After 35 min of incubation at 37 °C, slides were washed once with ice-cold incubation buffer (3.5 min) and dipped for 30 s into ice-cold distilled water to remove buffer salts.
After drying the slides in a stream of room-temperature air, they were exposed on phosphor storage screens for 6–10 h. The storage screens were read by Cyclone Storage Phosphor System (Packard Instruments Co.). Quantification of plate readings was done with OptiQuant software (version 3.00, Packard Instruments Co.).
as §1

D2/3R [6] = experiment: Kinetic analysis of PET data (1TCM, 2TCM, Logan, SRTM); assay type: in vivo, Sprague-Dawley rats; settings: 1 mg/kg raclopride, measured with [^18F]FEt-AMC13
Protocol: Kinetic analysis is described using the nomenclature proposed by Innis et al.. ROI TACs of [^18F]FEt-AMC13 were analyzed with one-tissue and two-tissue compartmental models of reversible binding (1TCM and 2TCM, respectively) to obtain individual rate constants. From these, the regional distribution volumes (VT) were calculated and compared to those obtained with Logan graphical analysis. Binding potentials (BPND) were calculated from the distribution ratios as VT (target) / VT (cerebellum) – 1, or estimated with the simplified reference tissue model (SRTM) using the cerebellum as reference region.
Metabolite-corrected plasma-derived arterial input function and whole blood time-activity curve were used for Logan, 1TCM, and 2TCM analyses. Fractional cerebral blood volume was set to 3.6 % [27]. For one rat in the raclopride-treated group, no input curves could be obtained; therefore, its PET data were only analyzed with SRTM.
as §1

SMILES | logD [4] | Striatal SBR % change relative to control condition, Raclopride (D2/3R [5]) [%] | Striatal SBR, Raclopride (D2/3R [5]) | Striatal SBR % change relative to control condition, GTP (D2/3R [5]) [%] | Striatal SBR, GTP (D2/3R [5]) | other results
CCN1CCC[C@H]1CNC(=O)c1c(O)c(Cl)cc(Cl)c1O[11CH3] (racemic) [[^11C]raclopride, reference compound] |  |  |  |  |  | Striatum-to-cerebellum uptake ratio (PET) (D2/3R [1]): 7.45 ± 1.60
Oc1ccc2c(c1)O[C@@H](CNCc1ccccc1)CC2 [(R)-2-[(benzylamino)methyl]chroman-7-ol] |  |  |  |  |  | selectivity [2]: selective for D2/3R against serotonin-1A and adrenergic α1 receptors
CCCN1CCc2cc(O[11CH3])cc3c2C1Cc1ccc(O)c(O)c1-3 (stereo not shown) [[^11C]MNPA] |  |  |  |  |  | displacement of apparent D2/3R-specific striatal uptake (D2/3R [3]): > 90%
CC[11CH2]N1CCO[C@@H]2c3cc(O)ccc3CCC21 (stereo partly shown) [[^11C]PHNO] |  |  |  |  |  | displacement of apparent D2/3R-specific uptake (D2/3R [3]; 0.2 mg/kg (0.58 μmol/kg) raclopride): over 80%; displacement of apparent D2/3R-specific striatal uptake (D2/3R [3]): > 90%
CCCN(CCC[18F])C1CCc2c(O)cccc2C1 (stereo not shown) [[^18F]5-OH-FPPAT] |  |  |  |  |  | striatum-to-cerebellum ratio (D2/3R [3]; rats): 2
Oc1ccc2c(c1)O[C@@H](CNCCN1CCN(c3ccc(OCCCC[18F])cc3)CC1)CC2 [[^18F]FBu-AMC15] | 2.71 ± 0.07 | −64 | 0.25 ± 0.23 | −67 | 0.23 ± 0.23 | 
Oc1ccc2c(c1)O[C@@H](CNCc1ccc(OCCC[18F])cc1)CC2 [[^18F]FPr-AMC13] | 1.98 ± 0.08 | −80 | 0.41 ± 0.23 | −80 | 0.42 ± 0.23 | 
Oc1ccc2c(c1)O[C@@H](CNCCN1CCN(c3ccc(OCCC[18F])cc3)CC1)CC2 [[^18F]FPr-AMC15] | 2.39 ± 0.001 | −61 | 0.39 ± 0.22 | −63 | 0.37 ± 0.24 | 
CCN1CCC[C@H]1CNC(=O)c1c(O)c(Cl)cc(Cl)c1OC [raclopride, reference compound] |  |  |  |  |  | raclopride-induced D2/3R occupancy (modified Lassen plot) (D2/3R [6]): 20–25%
